Like-named read-outs stand apart in the source and are kept apart here. Marks after values point to notes of the source that are not given here. Values belong to the compound of their own block, whether it stands above or below them.
Key:
[1] = tested on: human induced pluripotent stem cell-derived cardiomyocytes (hiPSC-CMs)
[2] = tested on: Stanford Cardiovascular Institute [SCI] human stem cell-derived cardiomyocytes; details: for EAD occurrence (proportion of replicates exhibiting EADs): study 10, SCI, AXN
[3] = tested on: Axiogenesis [AXG] human stem cell-derived cardiomyocytes; details: for EAD occurrence (proportion of replicates exhibiting EADs): AXG; for FPDc20 concentration (20% increase in FPDc): human
[4] = tested on: Cellular Dynamics International [CDI] human stem cell-derived cardiomyocytes
[5] = free clinical Cmax; ref Kramer et al. (2013); cited from earlier work
[6] = 20% increase in FPDc, median across qualified studies

- FPDc20: median [1, 6]: 1 µM
- EAD occurrence (proportion of replicates exhibiting EADs) ([3]; study 4, MCS, 3 µM): 1/3
- EAD occurrence (proportion of replicates exhibiting EADs) ([4]; study 5, CDI, AXN, 1 µM): 2/4
- EAD occurrence (proportion of replicates exhibiting EADs) ([4]; study 5, CDI, AXN, 3 µM): 1/4
- EAD occurrence (proportion of replicates exhibiting EADs) ([4]; study 6, CDI, AXN, 1 µM): 1/3
- EAD occurrence (proportion of replicates exhibiting EADs) ([4]; study 6, CDI, AXN, 3 µM): 1/3
- EAD occurrence (proportion of replicates exhibiting EADs) ([4]; study 7, CDI, MCS, 3 µM): 3/3
- EAD occurrence (proportion of replicates exhibiting EADs) ([4]; study 8, CDI, MCS, 3 µM): 4/4
- EAD occurrence (proportion of replicates exhibiting EADs) ([4]; study 9, CDI, ACA, 3 µM): 3/3
SMILES: O=C(NCC1CCCCN1)c1cc(OCC(F)(F)F)ccc1OCC(F)(F)F (stereo not shown) [Flecainide]
- FPDc20 concentration (20% increase in FPDc) ([2]; human): 1 µM
- EAD occurrence (proportion of replicates exhibiting EADs) ([2]; 1 µM): 1/3
- EAD occurrence (proportion of replicates exhibiting EADs) ([2]; 3 µM): 2/3

- EAD occurrence ([1]; across all studies, any concentration): No EADs
SMILES: CC(C)(Oc1ccc(Cl)cc1)C(=O)NC1C2CC3CC1CC(NS(C)(=O)=O)(C3)C2 (stereo not shown) [JNJ303]
- prolongation of FPD and FPDc ([4]; single example study, CDI myocytes, highest concentration tested (300 nM)): ~10%

- FPDc20: median ([1]; human): 30 µM
- FPDc20: span ([1]; human): 0.5 log unit
- studies in which FPDc20 was detected ([1]; human): 3 of 8
- FPDc20 concentration (20% increase in FPDc) [3]: 30 µM
- EAD occurrence (proportion of replicates exhibiting EADs) ([4]; human): 3/3
SMILES: Cc1cccc(C)c1OCC(C)N (stereo not shown) [Mexiletine]

- FPDc20: median [1, 6]: 100 µM
- FPDc20 concentration (20% increase in FPDc) [3]: 100 µM
- EAD occurrence (proportion of replicates exhibiting EADs) ([4]; study 6, CDI, AXN, 100 µM): 3/3
- EAD occurrence (proportion of replicates exhibiting EADs) ([4]; study 9, CDI, ACA, 30 µM): 1/3
- EAD occurrence (proportion of replicates exhibiting EADs) ([4]; study 9, CDI, ACA, 100 µM): 2/3
SMILES: COc1c(N2C[C@@H]3CCCN[C@@H]3C2)c(F)cc2c(=O)c(C(=O)O)cn(C3CC3)c12 [Moxifloxacin]
- FPDc20 concentration (20% increase in FPDc) ([2]; human): 30 µM
- EAD occurrence (proportion of replicates exhibiting EADs) ([2]; 30 µM): 1/3
- EAD occurrence (proportion of replicates exhibiting EADs) ([2]; 100 µM): 2/3
- Free Drug (free Cmax) [5]: 10.96* µM

- EAD occurrence [1]: No EADs
- FPDc20: median ([1]; human): 0.1 µM
- FPDc20: span ([1]; human): 0.5 log unit
SMILES: COC(=O)C1=C(C)NC(C)=C(C(=O)OC)C1c1ccccc1[N+](=O)[O-] [Nifedipine]
- FPDc20 concentration (20% decrease in FPDc) ([2]; human): 0.3 µM

- FPDc20: median [1, 6]: 1 µM
- FPDc20: span ([1]; 20% increase in FPDc, span across qualified studies): 1 log unit
- EAD occurrence (proportion of replicates exhibiting EADs) ([3]; study 1, AXN, 10 µM): 3/3
- EAD occurrence (proportion of replicates exhibiting EADs) ([3]; study 2, AXN, 10 µM): 2/3
- EAD occurrence (proportion of replicates exhibiting EADs) ([3]; study 4, MCS, 10 µM): 3/3
- EAD occurrence (proportion of replicates exhibiting EADs) ([4]; study 5, CDI, AXN, 10 µM): 2/3
- EAD occurrence (proportion of replicates exhibiting EADs) ([4]; study 6, CDI, AXN, 1 µM): 3/3
- EAD occurrence (proportion of replicates exhibiting EADs) ([4]; study 6, CDI, AXN, 3 µM): 3/3
- EAD occurrence (proportion of replicates exhibiting EADs) ([4]; study 7, CDI, MCS, 3 µM): 1/3
- EAD occurrence (proportion of replicates exhibiting EADs) ([4]; study 7, CDI, MCS, 10 µM): 3/3
- EAD occurrence (proportion of replicates exhibiting EADs) ([4]; study 8, CDI, MCS, 10 µM): 4/4
- EAD occurrence (proportion of replicates exhibiting EADs) ([4]; study 9, CDI, ACA, 1 µM): 1/3
- EAD occurrence (proportion of replicates exhibiting EADs) ([4]; study 9, CDI, ACA, 3 µM): 3/3
- EAD occurrence (proportion of replicates exhibiting EADs) ([4]; study 9, CDI, ACA, 10 µM): 2/3
SMILES: C=C[C@H]1C[N@@]2CC[C@H]1C[C@@H]2[C@@H](O)c1ccnc2ccc(OC)cc12 [Quinidine]
- FPDc20 concentration (20% increase in FPDc) ([2]; human): 1 µM
- EAD occurrence (proportion of replicates exhibiting EADs) ([2]; 1 µM): 2/3
- EAD occurrence (proportion of replicates exhibiting EADs) ([2]; 3 µM): 3/3
- Free Drug (free Cmax) [5]: 3.237* µM

- FPDc20: median [1, 6]: 10 µM
- EAD occurrence (proportion of replicates exhibiting EADs) ([3]; study 4, MCS, 30 µM): 3/4
- EAD occurrence (proportion of replicates exhibiting EADs) ([4]; study 6, CDI, AXN, 10 µM): 3/3
- EAD occurrence (proportion of replicates exhibiting EADs) ([4]; study 6, CDI, AXN, 30 µM): 3/3
- EAD occurrence (proportion of replicates exhibiting EADs) ([4]; study 7, CDI, MCS, 30 µM): 3/3
- EAD occurrence (proportion of replicates exhibiting EADs) ([4]; study 8, CDI, MCS, 30 µM): 5/5
- EAD occurrence (proportion of replicates exhibiting EADs) ([4]; study 9, CDI, ACA, 10 µM): 3/3
- EAD occurrence (proportion of replicates exhibiting EADs) ([4]; study 9, CDI, ACA, 30 µM): 2/3
SMILES: COc1ccccc1OCC(O)CN1CCN(CC(=O)Nc2c(C)cccc2C)CC1 (stereo not shown) [Ranolazine]
- FPDc20 concentration (20% increase in FPDc) ([2]; human): 10 µM
- EAD occurrence (proportion of replicates exhibiting EADs) ([2]; 10 µM): 1/3
- EAD occurrence (proportion of replicates exhibiting EADs) ([2]; 30 µM): 2/3

From PMC6061700 (Toxicological Sciences, 2018)
